Reference: article PMC6510909 (Investigational New Drugs, 2018)
Where two headings read alike, the source gives them in different places.

Experiments:
TBK1 = TBK1 inhibition estimated from plasma Cmax; set-up: species or system human
[1] = tested on: patients with previously untreated metastatic PDAC; assay: Phase 1 efficacy: best overall response (RECIST v1.1), OS, PFS, duration of response; type: in vivo, human
Method: All patients provided written informed consent prior to enrollment.
Staging CT or MRI scans were performed at baseline and approximately every 8 weeks following Cycle 1 Day 1. Imaging modalities were maintained over the course of the study. Treatment was to continue in the absence of disease progression, unacceptable toxicity, consent withdrawal, or refusal of treatment. After discontinuation of treatment, patients were followed for safety for 30 days.
The efficacy analyses were conducted in all enrolled patients.

[2] = Plasma pharmacokinetics on Cycle 1 Day 15, noncompartmental; type: in vivo, human; conditions: for Cmax / half-life / Tmax / AUC: human, plasma, oral
Method: Blood samples were collected from patients prior to the MMB dose and at specified time points up to 24 h post-dose on Cycle 1 Day 15. Pharmacokinetic (PK) parameters were estimated using Phoenix WinNonlin® software (Certara USA, Inc., Princeton, NJ) using standard noncompartmental methods.

[3] = 100 mg MMB QD n = 7, + nab-P + G
[4] = 150 mg MMB BID n = 3, + nab-P + G
[5] = 150 mg MMB QD n = 4, + nab-P + G
[6] = 200 mg MMB BID n = 4, + nab-P + G
[7] = 200 mg MMB QD n = 7, + nab-P + G
[8] = all cohorts, MMB + nab-P + G, n = 25
[9] = overall study population, MMB + nab-P + G

Which results are given for `N#CCNC(=O)c1ccc(-c2ccnc(Nc3ccc(N4CCOCC4)cc3)n2)cc1` [MMB, momelotinib]?
Estimated transient maximal TBK1 inhibition (TBK1; based on the Cmax of approximately 300 ng/mL): EC70; MMB concentrations relative to TBK1 inhibition (TBK1; pharmacokinetic analyses): too low; Best overall response: CR [1, 3]: 0 n, (%); Best overall response: Not evaluable [1, 3]: 2 (28.6) n, (%); Best overall response: ORR (CR + PR) [1, 3]: 2 (28.6) n, (%); Best overall response: PD [1, 3]: 1 (14.3) n, (%); Best overall response: PR [1, 3]: 2 (28.6) n, (%); Best overall response: SD [1, 3]: 2 (28.6) n, (%); Best overall response: CR [1, 4]: 0 n, (%); Best overall response: Not evaluable [1, 4]: 1 (33.3) n, (%); Best overall response: ORR (CR + PR) [1, 4]: 1 (33.3) n, (%); Best overall response: PD [1, 4]: 0 n, (%); Best overall response: PR [1, 4]: 1 (33.3) n, (%); Best overall response: SD [1, 4]: 1 (33.3) n, (%); Best overall response: CR [1, 5]: 0 n, (%); Best overall response: Not evaluable [1, 5]: 0 n, (%); Best overall response: ORR (CR + PR) [1, 5]: 1 (25.0) n, (%); Best overall response: PD [1, 5]: 1 (25.0) n, (%); Best overall response: PR [1, 5]: 1 (25.0) n, (%); Best overall response: SD [1, 5]: 2 (50.0) n, (%); Best overall response: CR [1, 6]: 0 n, (%); Best overall response: Not evaluable [1, 6]: 0 n, (%); Best overall response: ORR (CR + PR) [1, 6]: 0 n, (%); Best overall response: PD [1, 6]: 0 n, (%); Best overall response: PR [1, 6]: 0 n, (%); Best overall response: SD [1, 6]: 4 (100.0) n, (%); Best overall response: CR [1, 7]: 0 n, (%); Best overall response: Not evaluable [1, 7]: 0 n, (%); Best overall response: ORR (CR + PR) [1, 7]: 3 (42.9) n, (%); Best overall response: PD [1, 7]: 0 n, (%); Best overall response: PR [1, 7]: 3 (42.9) n, (%); Best overall response: SD [1, 7]: 4 (57.1) n, (%); Complete responses (CRs) across the dose cohorts [1, 8]: no CRs; Partial responses (PRs) across the dose cohorts [1, 8]: 7; Stable disease as the best response, patients [1, 8]: 52%; Objective response rate (ORR), overall study population ([1]; all cohorts, MMB + nab-P + G, n = 25, 95% CI 12.1%–49.4%): 28%; Median (95% CI) OS [1, 9]: 8.7 (6.7, 18.8) months; Median (95% CI) PFS [1, 9]: 5.7 (5.3, 7.2) months; Median (95% CI) duration of response ([1]; the 7 patients with a PR): 4.0 (0.5, not reached) months; Increases in exposure with dose ([2]; 100-200 mg MMB): less than dose-proportional; AUCtau, 200 mg once-daily compared with 100 mg once-daily ([2]; Cycle 1 Day 15): less than 2 fold; Cmax, 200 mg once-daily compared with 100 mg once-daily ([2]; Cycle 1 Day 15): less than 2 fold; Cmax ([2]; 100 mg, 100 mg MMB QD n = 6, steady state, mean (% coefficient of variation), read-out: Cmax): 0.258 µg/mL; half-life ([2]; 100 mg, 100 mg MMB QD n = 6, steady state, median (first quarter, third quarter), read-out: T 1/2 (converted)): 5.4 h; Tmax ([2]; 100 mg, 100 mg MMB QD n = 6, steady state, median (first quarter, third quarter), read-out: Tmax): 4.5 h; AUC ([2]; 100 mg, 100 mg MMB QD n = 6, steady state, mean (% coefficient of variation)): 2 µg·h/mL; AUC ([2]; 150 mg, 150 mg MMB BID n = 1, steady state): 1.52 µg·h/mL; Cmax ([2]; 150 mg, 150 mg MMB BID n = 1, steady state, read-out: Cmax): 0.215 µg/mL; half-life ([2]; 150 mg, 150 mg MMB BID n = 1, steady state, read-out: T 1/2 (converted)): 5 h; Tmax ([2]; 150 mg, 150 mg MMB BID n = 1, steady state, read-out: Tmax): 3 h; Cmax ([2]; 150 mg, 150 mg MMB QD n = 3, steady state, mean (% coefficient of variation), read-out: Cmax): 0.2 µg/mL; half-life ([2]; 150 mg, 150 mg MMB QD n = 3, steady state, median (first quarter, third quarter), read-out: T 1/2 (converted)): 6.6 h; Tmax ([2]; 150 mg, 150 mg MMB QD n = 3, steady state, median (first quarter, third quarter), read-out: Tmax): 3.2 h; AUC ([2]; 150 mg, 150 mg MMB QD n = 3, steady state, mean (% coefficient of variation)): 1.68 µg·h/mL; Cmax ([2]; 200 mg, 200 mg MMB BID n = 3, steady state, mean (% coefficient of variation), read-out: Cmax): 0.33 µg/mL; half-life ([2]; 200 mg, 200 mg MMB BID n = 3, steady state, median (first quarter, third quarter), read-out: T 1/2 (converted)): 5.5 h; Tmax ([2]; 200 mg, 200 mg MMB BID n = 3, steady state, median (first quarter, third quarter), read-out: Tmax): 3 h; AUC ([2]; 200 mg, 200 mg MMB BID n = 3, steady state, mean (% coefficient of variation)): 1.98 µg·h/mL; Cmax ([2]; 200 mg, 200 mg MMB QD n = 6, steady state, mean (% coefficient of variation), read-out: Cmax): 0.364 µg/mL; half-life ([2]; 200 mg, 200 mg MMB QD n = 6, steady state, median (first quarter, third quarter), read-out: T 1/2 (converted)): 5.3 h; Tmax ([2]; 200 mg, 200 mg MMB QD n = 6, steady state, median (first quarter, third quarter), read-out: Tmax): 3.5 h; AUC ([2]; 200 mg, 200 mg MMB QD n = 6, steady state, mean (% coefficient of variation)): 3.34 µg·h/mL; half-life ([2]; Cycle 1 Day 15, across dose levels, approximately, read-out: Median terminal half-life): 5 to 6.6 h; Tmax ([2]; Cycle 1 Day 15, across dose levels, approximately, read-out: Time to peak plasma concentration after the first dose of MMB): 3 to 4.5 h; Cmax ([2]; across dose levels, approximately, read-out: Maximum plasma concentration (Cmax), overall): ~0.3 µg/mL; Cmax ([2]; converted from approximately 300 ng/mL, read-out: Maximum plasma concentration (Cmax), overall): 0.72 µM
